This note sets out measurements from the OPERA property sets (Mansouri et al. 2018).

For `Cc1ccc2ncccc2c1`, the boiling point came to 259 °C, the log10 vapour pressure (mmHg) is -2.19 and the melting point was -22 °C.
In turn, `CCOc1ccc(Cc2nc(C)cc3cc(OC)c(OC)cc23)cc1OC` had a melting point of 124 °C.
In the case of `C=CCOC`, the boiling point stood at 44 °C.
Regarding `CC(C)I`, the boiling point is 89.5 °C, the log10 vapour pressure (mmHg) was 1.63 and the melting point was -90 °C.
With `CC(C)C1=CC(O)C(C)CC1` (stereo not given), the boiling point came to 220 °C.
For `CC(C)C1=CC[C@H](C)CC1`, the boiling point came out at 168 °C.
Take `O=C(ON=C1C=CC(=NOC(=O)c2ccccc2)C=C1)c1ccccc1`: the ready biodegradability result was “not readily biodegradable”.
The compound `CCC[N+](=O)[O-]` showed a boiling point of 131 °C, a log10 Henry constant (atm·m³/mol) of -4.06, a log10 Koa of 3.25 and a log10 vapour pressure (mmHg) of 1. The compound further had a melting point of -108 °C.
In turn, `Cn1c(=O)cc(O)c2ccccc21` had a melting point of 270 °C.
The compound `Cc1cc(Cl)ccc1OC(C)C(=O)O` (stereo not given) gave a boiling point of 298 °C, a log10 Koc (L/kg) of 1.3 and a melting point of 94.5 °C.
`C[C@@H]1C(=O)OC[C@H]2[C@@H]1CC[C@@H]2C` came in with a melting point of 60.5 °C.
Regarding `CCCCB(Cl)CCCC`, the boiling point amounted to 173 °C.
`C1CCC(OC2CCCCC2)CC1` displayed a boiling point of 242 °C and a melting point of -36 °C.
`Nc1c(C(=O)O)ccc2c1C(=O)c1ccccc1C2=O`: the melting point stood at 296 °C.
On to `OC[C@@H]1CCCNC1`, for which the melting point was 61 °C.
`CCN(CC)c1ccccc1` displayed a boiling point of 216 °C, a log10 Koc (L/kg) of 2.08, a log10 vapour pressure (mmHg) of -0.866 and a melting point of -38.8 °C. Besides, the ready biodegradability result is “not readily biodegradable”.
With `CCC(C)C#N` (stereo not given), the boiling point was 125 °C.
Compound `O=c1occc2ccccc12` displayed a boiling point of 286 °C and a melting point of 47 °C.
As for `C=CC[C@H](C)O`, the boiling point worked out at 116 °C.
The compound `Oc1cc(Cl)c(Cl)c(Cl)c1Cl` displayed a log10 Koc (L/kg) of 4.12 and a melting point of 116 °C.
`COc1cc2cc(c1Cl)N(C)C(=O)C[C@H](OC(=O)[C@H](C)N(C)C(C)=O)[C@]1(C)O[C@H]1[C@H](C)[C@@H]1C[C@@](O)(NC(=O)O1)C(OC)C=CC=C(C)C2` (stereo not given in full) showed a melting point of 172 °C.
`CCc1cnccn1` registered a boiling point of 152 °C and a log10 Henry constant (atm·m³/mol) of -5.61.
`OCC(CO)(CO)COCC(CO)(CO)CO`: the melting point stood at 221 °C and the ready biodegradability entry is reported as “not readily biodegradable”.
`Nc1c2c(nc3ccccc13)CCCC2` gave a melting point of 184 °C.
Regarding `Cc1cccc(C(=O)O)c1C`, the melting point amounted to 146 °C.
Regarding `Nc1ccccc1`, the boiling point was found to be 184 °C, the log10 Henry constant (atm·m³/mol) was -5.69, the log10 Koc (L/kg) was determined as 1.6 and the log10 vapour pressure (mmHg) is -0.31. In addition, the melting point was -6 °C and the ready biodegradability result is “readily biodegradable”.
Turning to `CC(=O)OC/C=C(\C)CCC=C(C)C`, the boiling point amounted to 238 °C and the log10 vapour pressure (mmHg) was -1.48.
`c1ccc2c(c1)Cc1c-2ccc2ccccc12` gave a boiling point of 405 °C, a log10 Henry constant (atm·m³/mol) of -4.58, a log10 biodegradation half-life (days) of 2.15 and a log10 vapour pressure (mmHg) of -6.61. The compound also yielded a melting point of 190 °C.
With `CCCCCCCCCCCCCOP(Oc1ccccc1)Oc1ccccc1`, the ready biodegradability result is recorded as “not readily biodegradable”.
`Clc1ccc(-c2cc(Cl)ccc2Cl)c(Cl)c1` displayed a log10 Henry constant (atm·m³/mol) of -3.68, a log10 Koa of 8.39 and a log10 vapour pressure (mmHg) of -5.07.
In the case of `OC[C@H]1O[C@@H](n2cnc3c2N=CNC[C@H]3O)C[C@@H]1O`, the melting point is 220 °C.
Turning to `CCC(=O)OC(C)CC` (stereo not given), the boiling point came out at 133 °C.
Take `OC(CCCN1CCCCC1)(c1ccccc1)c1ccccc1`: the melting point came out at 104 °C.
On the same count and under the same terms, under `Oc1ccccc1-c1nnco1` stands 112 °C; under `Cc1ccc2ccccc2c1N`, 32 °C.
Regarding `C=CCC1=C(C)C(OC(=O)C2C(C=C(C)C)C2(C)C)CC1=O` (stereo not given), the log10 vapour pressure (mmHg) was -5.92, the melting point was -40 °C and the ready biodegradability result is listed as “not readily biodegradable”.
As for `C=CCC1CCCCC1`, the boiling point was 132 °C.
Consider `Clc1nc2ccccc2s1`, for which the boiling point was determined as 248 °C and the melting point stood at 24 °C.
The like results for `C=C(C)C(C)=O` were, in that order, 98 °C and -54 °C.
Compound `C=C1C(=O)O[C@@H]2C=C(CO)CCC=C(C)C[C@H](OC(=O)C(=C)[C@@H](O)CO)[C@@H]12` had a melting point of 143 °C.
As to `Clc1cc2c(cc1Cl)Oc1ccccc1O2`, the log10 Koa stood at 8.5, the log10 vapour pressure (mmHg) is -5.53 and the melting point was 163 °C.
`Cc1cc(NC(N)=O)ccc1Br` gave a log10 Koc (L/kg) of 2.37.
For the compound `Fc1nc(F)nc(F)n1`, the boiling point was found to be 72.8 °C and the melting point was -38 °C.
The compound `N#Cc1cc(I)c(O)c([N+](=O)[O-])c1` displayed a melting point of 138 °C.
On to `NCc1cccnc1`, for which the boiling point came out at 226 °C and the melting point was -21.1 °C.
For the compound `Clc1ccc(Br)cc1`, the boiling point worked out at 196 °C, the log10 vapour pressure (mmHg) is -0.588 and the melting point was 68 °C.
`CC1CN1` (stereo not given) showed a boiling point of 67 °C, a log10 vapour pressure (mmHg) of 2.15 and a melting point of -65 °C.
`O=C(O)c1ccc(O)c([N+](=O)[O-])c1` returned a melting point of 230 °C.
With `CC(C)(c1ccc(O)cc1)c1ccc(O)cc1`, the melting point turned out to be 153 °C and the ready biodegradability result was “not readily biodegradable”.
For `CCCCCCCCCCOc1ccc(C(=O)O)cc1`, the melting point was determined as 114 °C.
Still for that read-out and setting: under `O=C1C=CC(=O)C(c2ccccc2)=C1` stands 114 °C.
